Paper PMC6120190, “Identification of two distinct peptide-binding pockets in the SH3 domain of human mixed-lineage kinase 3” (The Journal of Biological Chemistry, 2018)
No end group written: not given here.

How the values were obtained:
MLK3 SH3 domain = assay: analytical size-exclusion chromatography of MLK3 SH3-MIP fusion proteins (oligomeric state); assay type: binding, human; conditions: Superdex 200 10/300 GL, 25 mM Tris-HCl, pH 7.4, 500 mM NaCl; for effect of mutation on binding to MLK3 SH3 (fusion proteins, gel filtration): 750 μg/200 μl (Fig. S4); for oligomeric state by size-exclusion chromatography: MIP(1–19) fusion 2 mg/200 μl, MIP(1–13) fusions 750 μg/200 μl
From the text: Two DNA fragments encoding the SH3 domain of MLK3 (UniProt entry Q16584), MLK3 SH3(41–105) and MLK3 SH3(44–103), and four fragments encoding SH3 domain-MIP fusions, MLK3 SH3(41–105)-MIP(1–19), MLK3 SH3(41–105)-MIP(1–13), MLK3 SH3(41–105)-MIP(1–13)W10A, and MLK3 SH3(41–105)-MIP(1–13)R12A, were commercially prepared as gBlocks Gene Fragments. One fragment encoding SH3 domain fused to an NS5A (UniProt entry A0A076MER2) peptide, MLK3 SH3(41–105)-NS5A(2325–2332), was created by amplifying MLK3 SH3(41–105) with T7 promoter primer and a reverse primer (see Table S1). The subsequent insert contained MLK3 SH3(41–105) with the NS5A fragment (aa 2325–2332) at the C terminus. All coding regions were codon-optimized for E. coli expression. DNA fragments were cleaved with NdeI and BamHI-HF (New England Biolabs) and subsequently ligated into a modified version of the pET14b expression vector where the N-terminal His6 tag is followed by a SUMO protease cleavage site. The resulting DNA constructs (verified by sequencing) were transformed into E. coli strain BL21 C41(DE3). Cells were grown at 37 °C in 2× YT medium, which was supplemented with either 50 μg/ml CB or 100 μg/ml ampicillin, protein expression was induced with 0.1–0.3 mM IPTG at an A600 nm of 0.6–0.7, and cells were cultured overnight at 22 °C. Cells were harvested by centrifugation; washed with 200 mM KCl, 50 mM Tris, pH 7.4; and lysed by sonication in 25 mM Tris, pH 7.4, 200 mM KCl, 10 mM MgCl2, 10% glycerol, 1% Triton X-100, 1 mM phenylmethylsulfonyl fluoride (PMSF). Clarified supernatant was loaded onto a 5-ml HisTrap^TM HP Ni-Sepharose column (GE Healthcare), and the column was washed with 25 mM Tris, pH 7.4, 500 mM NaCl supplemented with 10 and 25 mM imidazole. Protein was eluted in the same buffer, which was supplemented with 250 and 500 mM imidazole, and the fractions were pooled together. The His6-SUMO tag was cleaved with SUMO protease while dialyzing against 25 mM Tris, pH 7.4, 500 mM NaCl, 10 mM imidazole, and the tag was removed by loading the sample back onto a nickel column. Collected fractions containing purified protein were concentrated and injected onto an S-200 size-exclusion column (GE Healthcare) equilibrated with 25 mM Tris-HCl, pH 7.4, 500 mM NaCl. To confirm the purity, collected samples were analyzed by SDS-PAGE and detected with Coomassie Brilliant Blue staining. All purified proteins were concentrated and stored at −80 °C.
To determine oligomeric state of several MLK3 SH3 fusion proteins, samples were injected into a Superdex 200 10/300 GL size-exclusion chromatography column (GE Healthcare) in two independent experiments. Two samples, MLK3 SH3(41–105)-MIP(1–19) and MLK3 SH3(41–105), at 2 mg of protein/200-μl injection, were analyzed in the first experiment (Fig. S3). Three additional samples of MLK3 SH3 domain-MIP fusion proteins were analyzed in a second experiment by injecting 750 μg of protein in 200 μl: MLK3 SH3(41–105)-MIP(1–13), MLK3 SH3(41–105)-MIP(1–13)W10A, and MLK3 SH3(41–105)-MIP(1–13)R12A (Fig. S4). Prior to the injections, the column was equilibrated with 25 mM Tris-HCl, pH 7.4, 500 mM NaCl.
Figure S3. Comparison of apo vs peptide-bound MLK3 SH3. Gel filtration chromatography of MLK3 SH3 and MLK3 SH3-MIP(1-19) fusion using Superdex 200 10/300 GL. Both constructs were expressed and purified as His6-SUMO fusions and the tag cleaved with SUMO protease. […] PS corresponds to MW standards (kDa).
Figure S4. W10 and R12 in MIP are critical for intermolecular interaction with MLK3 SH3 in vitro. Three fusion proteins composed of MLK3 SH3(41-105) domain linked via its C-terminus to one of the MIP variant: MIP(1-13) (Blue), MIP(1-13)W10A (Red), or MIP(1-13)R12A (Green), and have been analyzed using gel filtration chromatography. Corresponding sequences of MIP variants are: […] (Blue), […] (Red), and […] (Green). […] The chromatogram corresponding to MLK3 SH3 (Orange) was scaled down by approximately 33%. […]

GST-MLK3 SH3 [1] = assay: phage ELISA of phage-displayed MIP and variants on GST-MLK3 SH3; assay type: binding, human; conditions: original clone/MIP, anti-M13 mAb-HRP detection, experiments in duplicate, averaged
Protocol: Figure 1. […] The presence of virions in the supernatant was determined by coating the wells of the microtiter plate with an anti-M13 mAb (anti-M13 Ab). Virions, which were retained in the microtiter plate wells, were detected with anti-M13 mAb conjugated to HRP. […] See also Fig. S1.
Figure 2. […] The MIP sequence, NH2-[…]-COOH, was fused to the N terminus of the pIII capsid protein of bacteriophage M13 ([51]) to facilitate type 3 pentavalent display. Systematic alanine replacements in the peptide were generated by Kunkel mutagenesis ([11]); Ala-1 and Ala-14 were replaced with Val. […] The signal for binding of MIP (WT) to GST-MLK3 SH3 is set as 100%, and other values are normalized to it. […] See also Fig. S2.
Screens for peptide ligands were performed following a protocol published previously ([11]). […] After three rounds of affinity selection, individual phage clones were isolated, and their binding was evaluated via phage ELISA ([11]). […]
All constructs were generated via Kunkel mutagenesis ([11], [57], [58]) and facilitated type 3 (pentavalent) display. […] All constructs were verified by DNA sequencing, and phage clones were evaluated for their binding to the target (GST-MLK3 SH3) via phage ELISA ([11]). […]

GST-MLK1 SH3 [2] = assay: specificity ELISA, MLK1; assay type: binding, human; conditions: biotinylated peptide ≈2 μM on NeutrAvidin; GST-SH3 0.15 μM, 1–1.5 h; anti-GST-HRP; triplicate (Fig. 8)
Protocol: (§1) Figure 8. Binding of MIP and NS5A peptides to SH3 domain of other members of MLK subfamily (MLK1–4). To determine whether MIP and NS5A can interact with SH3 domains of MLK1–4 proteins, the purified GST-MLK1–4 SH3 domains were incubated with biotinylated peptides, NS5A peptide ([…]-GGG-K-biotin), MIP ([…]-K-biotin), and MIP-R12A ([…]-K-biotin), immobilized on a NeutrAvidin-coated 96-well ELISA plate. Binding of SH3 domain was detected with anti-GST antibody conjugated to HRP. […] See also Fig. S6.
(§2) Two plasmids, gifts from Dr. Gerardo Morfini, University of Illinois at Chicago, encoding a GST protein fused to either the WT or mutant Y52A of the SH3 domain of MLK3 (UniProt entry Q16584; aa 43–104), respectively, between BamHI and EcoRI sites, were transformed into the Escherichia coli strain Rosetta(DE3)pLysS. DNA fragments encoding the SH3 domain of MLK1 (UniProt entry P80192; aa 52–116), MLK2 (UniProt entry Q02779; aa 16–81), and MLK4 (UniProt entry Q5TCX8; aa 38–102) were commercially prepared as gBlocks® Gene Fragments (Integrated DNA Technologies, Inc.). All coding regions were codon-optimized for E. coli expression. DNA fragments were cleaved with BamHI-HF® and EcoRI-HF® (New England Biolabs) and subsequently ligated into pGex-2T vector. […]

GST-MLK3 SH3 [3] = assay: specificity ELISA, MLK3; assay type: binding, human; conditions: biotinylated peptide ≈2 μM on NeutrAvidin; GST-SH3 0.15 μM, 1–1.5 h; anti-GST-HRP; triplicate (Fig. 8)
Protocol: as §1, §2

GST-MLK2 SH3 = assay: specificity ELISA, MLK2; assay type: binding, human; conditions: biotinylated peptide ≈2 μM on NeutrAvidin; GST-SH3 0.15 μM, 1–1.5 h; anti-GST-HRP; triplicate (Fig. 8)
Protocol: as §1, §2

MLK3 SH3 domain Y52A = assay: binding to Y52A mutant of MLK3 SH3; design: species or system human; conditions: data not shown
From the text: Two plasmids, gifts from Dr. Gerardo Morfini, University of Illinois at Chicago, encoding a GST protein fused to either the WT or mutant Y52A of the SH3 domain of MLK3 (UniProt entry Q16584; aa 43–104), respectively, between BamHI and EcoRI sites, were transformed into the Escherichia coli strain Rosetta(DE3)pLysS. DNA fragments encoding the SH3 domain of MLK1 (UniProt entry P80192; aa 52–116), MLK2 (UniProt entry Q02779; aa 16–81), and MLK4 (UniProt entry Q5TCX8; aa 38–102) were commercially prepared as gBlocks® Gene Fragments (Integrated DNA Technologies, Inc.). All coding regions were codon-optimized for E. coli expression. DNA fragments were cleaved with BamHI-HF® and EcoRI-HF® (New England Biolabs) and subsequently ligated into pGex-2T vector. The resulting DNA constructs, pGex-MLK1 SH3, pGex-MLK2 SH3, and pGex-MLK4 SH3 (verified by sequencing) were transformed into E. coli strain BL21(DE3).

GST-MLK4 SH3 [4] = assay: specificity ELISA, MLK4; assay type: binding, human; conditions: biotinylated peptide ≈2 μM on NeutrAvidin; GST-SH3 0.15 μM, 1–1.5 h; anti-GST-HRP; triplicate (Fig. 8)
Protocol: as §1, §2

GST-MLK4 SH3 [5] = molecular target: T1, GST-MLK4 SH3 (UniProt Q5TCX8 38-102); assay: ELISA; conditions: both partners purified
T1 construct: also called SH3 domain of MLK4
T1 sequence (looked up): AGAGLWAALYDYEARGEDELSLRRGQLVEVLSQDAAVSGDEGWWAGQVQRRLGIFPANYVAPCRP

GST-MLK1 SH3 [6] = molecular target: T2, GST-MLK1 SH3 (UniProt P80192 52-116); assay: ELISA; conditions: both partners purified
T2 construct: also called SH3 domain of MLK1
T2 sequence (looked up): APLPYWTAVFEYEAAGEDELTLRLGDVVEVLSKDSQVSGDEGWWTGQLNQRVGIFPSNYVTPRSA

GST-MLK3 SH3(43–104) = molecular target: T3, GST-MLK3 SH3(43–104) (human, UniProt Q16584 43-104); assay: ELISA; conditions: both partners purified
T3 construct: also called GST-MLK3 SH3-WT; SH3 WT
T3 sequence (looked up): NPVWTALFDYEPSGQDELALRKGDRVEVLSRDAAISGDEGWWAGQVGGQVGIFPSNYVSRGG

AIRINPNGTASRQ [MIP(1–13)W10A, SH3 domain linked via its C terminus to MIP(1–13)W10A]
effect of mutation on binding to MLK3 SH3 (fusion proteins, gel filtration) (MLK3 SH3 domain): loss of binding to MLK3 SH3 | oligomeric state by size-exclusion chromatography (MLK3 SH3 domain): elute at a volume corresponding to the size of a monomeric fusion protein | oligomeric state by size-exclusion chromatography (MLK3 SH3 domain; listed as MIP(1-13)W10A): elute at fraction corresponding to the size of a monomeric fusion protein

AIRINPNGTWSAQ [MIP(1–13)R12A, SH3 domain linked via its C terminus to MIP(1–13)R12A]
effect of mutation on binding to MLK3 SH3 (fusion proteins, gel filtration) (MLK3 SH3 domain): loss of binding to MLK3 SH3 | oligomeric state by size-exclusion chromatography (MLK3 SH3 domain): elute at a volume corresponding to the size of a monomeric fusion protein | oligomeric state by size-exclusion chromatography (MLK3 SH3 domain; listed as MIP(1-13)R12A): elute at fraction corresponding to the size of a monomeric fusion protein

AIRINPNGTWSRQ [MLK3 SH3(41–105)-MIP(1–13), SH3 domain linked via its C terminus to truncated WT ligand]
oligomeric state by size-exclusion chromatography (MLK3 SH3 domain): eluted as a higher order oligomer

H-IRINPNGTWSRQ-OH [single clone displaying a 12-mer peptide from ANL7 library]
binding to GST-MLK3 SH3 in phage ELISA (GST-MLK3 SH3 [1]): bound to the wildtype (WT) form of the MLK3 SH3 domain

KKAPTPPPRRRRGGGK [NS5A peptide, reference compound]
binding to MLK1 SH3 (GST-MLK1 SH3 [2]): could bind | binding to MLK3 SH3 (GST-MLK3 SH3 [3]): could bind | binding to MLK2 SH3 (GST-MLK2 SH3): could bind | effect of SH3 mutation Y52A on peptide binding (MLK3 SH3 domain Y52A): disrupts binding | binding to MLK4 SH3 (GST-MLK4 SH3 [4]): could bind

B1: biotinylated MIP (AIRINPNGTWSRQAETVES-K-biotin) (peptide)
peptide: AIRINPNGTWSRQAETVESK
modifications: biotin on the added C-terminal K
notes: also called immobilized MIP; biotinylated MIP peptide; source: synthetic peptide
binding result (GST-MLK4 SH3 [5]): binds | binding result (GST-MLK1 SH3 [6]): binds | binding result (GST-MLK3 SH3(43–104)): binds
